Measured values from patent US20260325511A1, “METHODS OF USE OF A LIPOSOMAL COMPOSITION COMPRISING AN ATR INHIBITOR” (Jazz Pharmaceuticals Therapeutics, Inc., priority 2023, published 2026).

Columns and labels:
Type in all cases: in vivo, mouse
[1] = test system: CRC Colo205; assay: Dosing schedule study, efficacy similar to Example 3 (Example 4B); parameters: dose or concentration left out as unconfirmed; details: vs vehicle; day 44 from inoculation (day 12 from start of measurements)
Procedure: (§1) Subcutaneous tumor models were initiated on 6-8 week old, female athymic nude mice. A cell suspension containing 5e6/100 μL CRC Colo205 cells in 1:1 PBS: Matrigel was subcutaneously injected into the hind flank of […] mice. Tumors were measured three times a week by digital caliper and reported as volume, calculated as V=π×1×w∧2 wherein 1 and w denote the longest and shortest tumor diameter respectively. Engrafted mice were then randomized into cohorts for treatment at an average tumor size of 80 mm^3.
(§2) Mice were organized into appropriate groups consisting of control (empty vehicle) and treatment groups including free irinotecan, irinotecan in combination with liposomal Compound A or liposomal Compound C, or irinotecan and berzosertib. […] Animals were weighed and monitored for survival and in-life observations were collected at the time of weight measurement. Mice were monitored individually to endpoint which was either an individual tumor weight of 2000 mm^3 or other defined risk factors, whichever came first.
Efficacy study similar to those described in Example 3 were also repeated where liposomal ATR inhibitors (Compounds A, C, or berzosertib) were dosed once a week or three times a week. Animal study groups are disclosed in Table 5B (n=8 per group). […]

[2] = test system: CRC Colo205; assay: Tumor efficacy study of liposomal ATR inhibitors + irinotecan, CRC Colo205 model (Example 3)
Procedure: Tumor efficacy studies were used to compare the efficacy of ATR inhibitors (Compounds A and C) in liposomal formulations in combination with irinotecan against irinotecan as a single agent in CRC Colo205 model.
as §1
Mice were organized into appropriate groups consisting of control (empty vehicle) and treatment groups including free irinotecan, irinotecan in combination with liposomal Compound A or liposomal Compound C, or irinotecan and berzosertib. Mice were administered free drug orally, and injected intravenously for liposomal compounds, with the required volume of sample to administer the prescribed dose to the animals based on individual mouse weights on dosing days. Animals were weighed and monitored for survival and in-life observations were collected at the time of weight measurement. Mice were monitored individually to endpoint which was either an individual tumor weight of 2000 mm^3 or other defined risk factors, whichever came first.
Animal study groups are disclosed in Table 2 (n=8 per group). Irinotecan was administered at 50 mg/kg via IP in a liposomal-free composition, once a week. Liposomal ATR inhibitors were administered at either 20 mg/kg (Group7) or 40 mg/kg (Groups 3, 5, 6, 8-10) via IV every other day. Berzosertib, clinical benchmark, was administered 5 consecutive days with 2 days off schedule. Last dose of any therapeutically active agent was administered on day 33.
Table 3 summarizes the tumor growth inhibition (TGI %) compared to the vehicle (Group 2) and tumor growth dynamic (TGD) compared to irinotecan single agent ([…]).

[3] = test system: non-small-cell lung cancer model (CTG-0828 PDX); assay: Efficacy in NSCLC model CTG-0828 PDX (Example 7)
Procedure: An efficacy study similar to those described in Example 3 above, was repeated where liposomal ATR inhibitor (Compounds A) and/or irinotecan were dosed at 50 mg/kg once a week in a non-small-cell lung cancer model (CTG-0828 PDX) for 5 weeks (QWx5) and compared to combinations of liposomal ATR inhibitor (Compounds A) and irinotecan. Animal study groups are disclosed in Table 10 (n=8 per group).

[4] = test system: colorectal carcinoma (CRC) model (Colo205); assay: Efficacy in colorectal cancer model Colo205 (Example 5); details: Lipo-G Comp. A 10-40 mg/kg IV QW or irinotecan 50 mg/kg IP QW
Procedure: as §1, §2
An efficacy study similar to those described in Example 3 above, was repeated where liposomal ATR inhibitors (Compounds A) were dosed once a week in a colorectal carcinoma (CRC) model (Colo205). Animal study groups are disclosed in Table 7 (n=8 per group)

[5] = test system: CRC Colo205; assay: Dosing schedule study, once a week, efficacy similar to Example 3 (Example 4A); details: vs vehicle; day 28 from inoculation (day 14 from start of dosing); irinotecan 50 mg/kg IP
[6] = irinotecan 50 mg/kg IP QW (reference)

Which results are given for `CCc1c2c(nc3ccc(OC(=O)N4CCC(N5CCCCC5)CC4)cc13)-c1cc3c(c(=O)n1C2)COC(=O)[C@]3(O)CC` [Irinotecan, irinotecan]?
TGI % D 44(d 12) [1]: 0%; TGI % (vs. vehicle) d 20 ([2]; day 20, irinotecan 50 mg/kg IP QW): 67%; TGI % (vs. vehicle) d 27 ([2]; day 27, irinotecan 50 mg/kg IP QW): 74%; CR % (complete response) ([2]; irinotecan 50 mg/kg IP QW): 0%; ORR % (objective response rate) ([2]; irinotecan 50 mg/kg IP QW): 0%; TGD (vs. single agent) % [2, 6]: 0%; TGD (vs. single agent) Index [2, 6]: 1.0; PR# (partial response), number of mice ([2]; irinotecan 50 mg/kg IP QW, n=8): 0 mice; Total R (response), number of mice ([2]; irinotecan 50 mg/kg IP QW, n=8): 0 mice; CR tumor regression rate ([3]; 50 mg/kg QWx5): 0%; Tumor Growth Delay Index (TGDI) ([3]; 50 mg/kg QWx5): 4.4; survival: median time to reach and exceed a tumor burden of 1 cm ([3]; 50 mg/kg QWx5, statistically significant improvement): 100 days; Max % Tumor Grown Inhibition (TGI) ([3]; 50 mg/kg each agent, QWx5): 91%; Regression * (% max) ([3]; 50 mg/kg each agent, QWx5): 60%; TGDI (vs. vehicle) ([3]; 50 mg/kg each agent, QWx5): 4.4; activity as single agent [4]: no/limited activity; TGI % d 28 (d 14) [5]: 55.4%
